Test results published in PMC10289903 (Investigational New Drugs, 2023).
Like-named read-outs stand apart in the source and are kept apart here.

System: patients with locally advanced or metastatic solid tumors
Source text: This was a Phase Ib, multicenter, open-label, dose-finding clinical trial (NCT02610075). […] Three types of treatment schedules were investigated: cohorts bid 1, bid 2, qd 1.1, qd 2.1 and qd 3.1 received bid or qd treatment on a 5/9 schedule (5 days on treatment, followed by 9 days off) on a 14-day cycle. Cohorts qd 1.2, qd 2.2, and qd 3.2 received treatment on a 5/2 schedule (5 days on followed by 2 days off for 2 of 3 weeks) in a 21-day cycle. Cohorts qd 2.3 and qd 3.3 received treatment on a weekly 5/2 schedule in a 21-day cycle (Table 1). The highest dose level(s) at which less than one-third of evaluable patients (none of 3 patients or 1 of 6 patients) experienced a dose-limiting toxicity (DLT) was declared the MTD.
The per protocol analysis set was defined as a subset of the full analysis set, excluding subjects having an important protocol deviation, to be used for analyses of efficacy endpoints if appropriate.

C=CCn1c(=O)c2cnc(Nc3ccc(N4CCN(C)CC4)cc3)nc2n1-c1cccc(C(C)(C)O)n1 [adavosertib, Adavosertib]
Dizziness (treatment-emergent AE) (qd 1.1: 200 mg qd 5/9 (n=5)): 1 (20.0) n (%)
Dyspepsia (treatment-emergent AE) (qd 1.1: 200 mg qd 5/9 (n=5)): 1 (20.0) n (%)
Dyspepsia (treatment-related AE) (qd 1.1: 200 mg qd 5/9 (n=5)): 0 n (%)
Dyspnea (treatment-emergent AE) (qd 1.1: 200 mg qd 5/9 (n=5)): 0 n (%)
Edema peripheral (treatment-emergent AE) (qd 1.1: 200 mg qd 5/9 (n=5)): 0 n (%)
Fall (treatment-emergent AE) (qd 1.1: 200 mg qd 5/9 (n=5)): 0 n (%)
Fatigue (treatment-emergent AE) (qd 1.1: 200 mg qd 5/9 (n=5)): 2 (40.0) n (%)
Fatigue (treatment-related AE) (qd 1.1: 200 mg qd 5/9 (n=5)): 1 (20.0) n (%)
Headache (treatment-emergent AE) (qd 1.1: 200 mg qd 5/9 (n=5)): 1 (20.0) n (%)
Hypokalemia (treatment-emergent AE) (qd 1.1: 200 mg qd 5/9 (n=5)): 0 n (%)
Insomnia (treatment-emergent AE) (qd 1.1: 200 mg qd 5/9 (n=5)): 0 n (%)
Muscle spasms (treatment-emergent AE) (qd 1.1: 200 mg qd 5/9 (n=5)): 0 n (%)
Myalgia (treatment-emergent AE) (qd 1.1: 200 mg qd 5/9 (n=5)): 1 (20.0) n (%)
Myalgia (treatment-related AE) (qd 1.1: 200 mg qd 5/9 (n=5)): 1 (20.0) n (%)
Nausea (treatment-emergent AE) (qd 1.1: 200 mg qd 5/9 (n=5)): 1 (20.0) n (%)
Nausea (treatment-related AE) (qd 1.1: 200 mg qd 5/9 (n=5)): 1 (20.0) n (%)
Neutropenia (treatment-emergent AE) (qd 1.1: 200 mg qd 5/9 (n=5)): 1 (20.0) n (%)
Neutropenia (treatment-related AE) (qd 1.1: 200 mg qd 5/9 (n=5)): 1 (20.0) n (%)
Pneumonia (treatment-emergent AE) (qd 1.1: 200 mg qd 5/9 (n=5)): 0 n (%)
Pyrexia (treatment-emergent AE) (qd 1.1: 200 mg qd 5/9 (n=5)): 1 (20.0) n (%)
Rash (treatment-emergent AE) (qd 1.1: 200 mg qd 5/9 (n=5)): 1 (20.0) n (%)
Thrombocytopenia (treatment-emergent AE) (qd 1.1: 200 mg qd 5/9 (n=5)): 0 n (%)
Thrombocytopenia (treatment-related AE) (qd 1.1: 200 mg qd 5/9 (n=5)): 0 n (%)
Urinary tract infection (treatment-emergent AE) (qd 1.1: 200 mg qd 5/9 (n=5)): 1 (20.0) n (%)
Vomiting (treatment-emergent AE) (qd 1.1: 200 mg qd 5/9 (n=5)): 0 n (%)
Vomiting (treatment-related AE) (qd 1.1: 200 mg qd 5/9 (n=5)): 0 n (%)
Abdominal pain (treatment-emergent AE) (qd 1.2: 200 mg qd 5/2 (n=6)): 2 (33.3) n (%)
Abdominal pain (treatment-related AE) (qd 1.2: 200 mg qd 5/2 (n=6)): 1 (16.7) n (%)
Alanine aminotransferase increased (treatment-emergent AE) (qd 1.2: 200 mg qd 5/2 (n=6)): 1 (16.7) n (%)
Anemia (treatment-emergent AE) (qd 1.2: 200 mg qd 5/2 (n=6)): 2 (33.3) n (%)
Anemia (treatment-related AE) (qd 1.2: 200 mg qd 5/2 (n=6)): 2 (33.3) n (%)
Any AE (treatment-emergent) (qd 1.2: 200 mg qd 5/2 (n=6)): 6 (100) n (%)
Any grade ≥ 3 AE (qd 1.2: 200 mg qd 5/2 (n=6)): 3 (50.0) n (%)
Any treatment-related AE (qd 1.2: 200 mg qd 5/2 (n=6)): 6 (100) n (%)
Any treatment-related grade ≥ 3 AE (qd 1.2: 200 mg qd 5/2 (n=6)): 2 (33.3) n (%)
Asthenia (treatment-emergent AE) (qd 1.2: 200 mg qd 5/2 (n=6)): 0 n (%)
Asthenia (treatment-related AE) (qd 1.2: 200 mg qd 5/2 (n=6)): 0 n (%)
Back pain (treatment-emergent AE) (qd 1.2: 200 mg qd 5/2 (n=6)): 1 (16.7) n (%)
Constipation (treatment-emergent AE) (qd 1.2: 200 mg qd 5/2 (n=6)): 2 (33.3) n (%)
Constipation (treatment-related AE) (qd 1.2: 200 mg qd 5/2 (n=6)): 1 (16.7) n (%)
Cough (treatment-emergent AE) (qd 1.2: 200 mg qd 5/2 (n=6)): 1 (16.7) n (%)
Decreased appetite (treatment-emergent AE) (qd 1.2: 200 mg qd 5/2 (n=6)): 1 (16.7) n (%)
Decreased appetite (treatment-related AE) (qd 1.2: 200 mg qd 5/2 (n=6)): 1 (16.7) n (%)
Dehydration (treatment-emergent AE) (qd 1.2: 200 mg qd 5/2 (n=6)): 2 (33.3) n (%)
Dehydration (treatment-related AE) (qd 1.2: 200 mg qd 5/2 (n=6)): 1 (16.7) n (%)
Diarrhea (treatment-emergent AE) (qd 1.2: 200 mg qd 5/2 (n=6)): 3 (50.0) n (%)
Diarrhea (treatment-related AE) (qd 1.2: 200 mg qd 5/2 (n=6)): 2 (33.3) n (%)
Dizziness (treatment-emergent AE) (qd 1.2: 200 mg qd 5/2 (n=6)): 2 (33.3) n (%)
Dyspepsia (treatment-emergent AE) (qd 1.2: 200 mg qd 5/2 (n=6)): 1 (16.7) n (%)
Dyspepsia (treatment-related AE) (qd 1.2: 200 mg qd 5/2 (n=6)): 1 (16.7) n (%)
Dyspnea (treatment-emergent AE) (qd 1.2: 200 mg qd 5/2 (n=6)): 1 (16.7) n (%)
Edema peripheral (treatment-emergent AE) (qd 1.2: 200 mg qd 5/2 (n=6)): 3 (50.0) n (%)
Fall (treatment-emergent AE) (qd 1.2: 200 mg qd 5/2 (n=6)): 1 (16.7) n (%)
Fatigue (treatment-emergent AE) (qd 1.2: 200 mg qd 5/2 (n=6)): 1 (16.7) n (%)
Fatigue (treatment-related AE) (qd 1.2: 200 mg qd 5/2 (n=6)): 1 (16.7) n (%)
Headache (treatment-emergent AE) (qd 1.2: 200 mg qd 5/2 (n=6)): 2 (33.3) n (%)
Hypokalemia (treatment-emergent AE) (qd 1.2: 200 mg qd 5/2 (n=6)): 0 n (%)
Insomnia (treatment-emergent AE) (qd 1.2: 200 mg qd 5/2 (n=6)): 1 (16.7) n (%)
Muscle spasms (treatment-emergent AE) (qd 1.2: 200 mg qd 5/2 (n=6)): 1 (16.7) n (%)
Myalgia (treatment-emergent AE) (qd 1.2: 200 mg qd 5/2 (n=6)): 3 (50.0) n (%)
Myalgia (treatment-related AE) (qd 1.2: 200 mg qd 5/2 (n=6)): 3 (50.0) n (%)
Nausea (treatment-emergent AE) (qd 1.2: 200 mg qd 5/2 (n=6)): 4 (66.7) n (%)
Nausea (treatment-related AE) (qd 1.2: 200 mg qd 5/2 (n=6)): 4 (66.7) n (%)
Neutropenia (treatment-emergent AE) (qd 1.2: 200 mg qd 5/2 (n=6)): 1 (16.7) n (%)
Neutropenia (treatment-related AE) (qd 1.2: 200 mg qd 5/2 (n=6)): 0 n (%)
Pneumonia (treatment-emergent AE) (qd 1.2: 200 mg qd 5/2 (n=6)): 0 n (%)
Pyrexia (treatment-emergent AE) (qd 1.2: 200 mg qd 5/2 (n=6)): 1 (16.7) n (%)
Rash (treatment-emergent AE) (qd 1.2: 200 mg qd 5/2 (n=6)): 0 n (%)
Thrombocytopenia (treatment-emergent AE) (qd 1.2: 200 mg qd 5/2 (n=6)): 0 n (%)
Thrombocytopenia (treatment-related AE) (qd 1.2: 200 mg qd 5/2 (n=6)): 0 n (%)
Urinary tract infection (treatment-emergent AE) (qd 1.2: 200 mg qd 5/2 (n=6)): 1 (16.7) n (%)
Vomiting (treatment-emergent AE) (qd 1.2: 200 mg qd 5/2 (n=6)): 3 (50.0) n (%)
Vomiting (treatment-related AE) (qd 1.2: 200 mg qd 5/2 (n=6)): 3 (50.0) n (%)
Abdominal pain (treatment-emergent AE) (qd 2.1: 250 mg qd 5/9 (n=4)): 1 (25.0) n (%)
Abdominal pain (treatment-related AE) (qd 2.1: 250 mg qd 5/9 (n=4)): 1 (25.0) n (%)
Alanine aminotransferase increased (treatment-emergent AE) (qd 2.1: 250 mg qd 5/9 (n=4)): 0 n (%)
Anemia (treatment-emergent AE) (qd 2.1: 250 mg qd 5/9 (n=4)): 1 (25.0) n (%)
Anemia (treatment-related AE) (qd 2.1: 250 mg qd 5/9 (n=4)): 0 n (%)
Any AE (treatment-emergent) (qd 2.1: 250 mg qd 5/9 (n=4)): 4 (100) n (%)
Any grade ≥ 3 AE (qd 2.1: 250 mg qd 5/9 (n=4)): 2 (50.0) n (%)
Any treatment-related AE (qd 2.1: 250 mg qd 5/9 (n=4)): 2 (50.0) n (%)
Any treatment-related grade ≥ 3 AE (qd 2.1: 250 mg qd 5/9 (n=4)): 0 n (%)
Asthenia (treatment-emergent AE) (qd 2.1: 250 mg qd 5/9 (n=4)): 0 n (%)
Asthenia (treatment-related AE) (qd 2.1: 250 mg qd 5/9 (n=4)): 0 n (%)
Back pain (treatment-emergent AE) (qd 2.1: 250 mg qd 5/9 (n=4)): 0 n (%)
Constipation (treatment-emergent AE) (qd 2.1: 250 mg qd 5/9 (n=4)): 0 n (%)
Constipation (treatment-related AE) (qd 2.1: 250 mg qd 5/9 (n=4)): 0 n (%)
Cough (treatment-emergent AE) (qd 2.1: 250 mg qd 5/9 (n=4)): 2 (50.0) n (%)
Decreased appetite (treatment-emergent AE) (qd 2.1: 250 mg qd 5/9 (n=4)): 0 n (%)
Decreased appetite (treatment-related AE) (qd 2.1: 250 mg qd 5/9 (n=4)): 0 n (%)
Dehydration (treatment-emergent AE) (qd 2.1: 250 mg qd 5/9 (n=4)): 0 n (%)
Dehydration (treatment-related AE) (qd 2.1: 250 mg qd 5/9 (n=4)): 0 n (%)
Diarrhea (treatment-emergent AE) (qd 2.1: 250 mg qd 5/9 (n=4)): 1 (25.0) n (%)
Diarrhea (treatment-related AE) (qd 2.1: 250 mg qd 5/9 (n=4)): 1 (25.0) n (%)
Dizziness (treatment-emergent AE) (qd 2.1: 250 mg qd 5/9 (n=4)): 0 n (%)
Dyspepsia (treatment-emergent AE) (qd 2.1: 250 mg qd 5/9 (n=4)): 0 n (%)
Dyspepsia (treatment-related AE) (qd 2.1: 250 mg qd 5/9 (n=4)): 0 n (%)
Dyspnea (treatment-emergent AE) (qd 2.1: 250 mg qd 5/9 (n=4)): 0 n (%)
Edema peripheral (treatment-emergent AE) (qd 2.1: 250 mg qd 5/9 (n=4)): 1 (25.0) n (%)
Fall (treatment-emergent AE) (qd 2.1: 250 mg qd 5/9 (n=4)): 0 n (%)
Fatigue (treatment-emergent AE) (qd 2.1: 250 mg qd 5/9 (n=4)): 0 n (%)
Fatigue (treatment-related AE) (qd 2.1: 250 mg qd 5/9 (n=4)): 0 n (%)
Headache (treatment-emergent AE) (qd 2.1: 250 mg qd 5/9 (n=4)): 0 n (%)
Hypokalemia (treatment-emergent AE) (qd 2.1: 250 mg qd 5/9 (n=4)): 0 n (%)
Insomnia (treatment-emergent AE) (qd 2.1: 250 mg qd 5/9 (n=4)): 0 n (%)
Muscle spasms (treatment-emergent AE) (qd 2.1: 250 mg qd 5/9 (n=4)): 0 n (%)
Myalgia (treatment-emergent AE) (qd 2.1: 250 mg qd 5/9 (n=4)): 0 n (%)
Myalgia (treatment-related AE) (qd 2.1: 250 mg qd 5/9 (n=4)): 0 n (%)
Nausea (treatment-emergent AE) (qd 2.1: 250 mg qd 5/9 (n=4)): 0 n (%)
Nausea (treatment-related AE) (qd 2.1: 250 mg qd 5/9 (n=4)): 0 n (%)
Neutropenia (treatment-emergent AE) (qd 2.1: 250 mg qd 5/9 (n=4)): 0 n (%)
Neutropenia (treatment-related AE) (qd 2.1: 250 mg qd 5/9 (n=4)): 0 n (%)
Pneumonia (treatment-emergent AE) (qd 2.1: 250 mg qd 5/9 (n=4)): 0 n (%)
Pyrexia (treatment-emergent AE) (qd 2.1: 250 mg qd 5/9 (n=4)): 1 (25.0) n (%)
Rash (treatment-emergent AE) (qd 2.1: 250 mg qd 5/9 (n=4)): 0 n (%)
Thrombocytopenia (treatment-emergent AE) (qd 2.1: 250 mg qd 5/9 (n=4)): 0 n (%)
